Assay results taken from US20160031907A1, “Substituted Benzene Compounds” (EPIZYME, INC., priority 2013, published 2016).

System: WSU-DLCL2 cell line
Assay: Cell proliferation analysis (Cell Titer Glo, 6 days)
Type: cell-based
Conditions: Homo sapiens, WSUDLCL2, 144 h; WSU-DLCL2 cells, 6 days incubation, cell viability by ATP (Cell Titer Glo)
Excerpt: Cell Proliferation Analysis
WSU-DLCL2 suspension cells were purchased from DSMZ (German Collection of Microorganisms and Cell Cultures, Braunschweig, Germany). RPMI/Glutamax Medium, Penicillin-Streptomycin, Heat Inactivated Fetal Bovine Serum were purchased from Life Technologies, Grand Island, N.Y., USA. V-bottom polypropylene 384-well plates were purchased from Greiner Bio-One, Monroe, N.C., USA. Cell culture 384-well white opaque plates were purchased from Perkin Elmer, Waltham, Mass., USA. Cell-Titer Glo® was purchased from Promega Corporation, Madison, Wis., USA. SpectraMax M5 plate reader was purchased from Molecular Devices LLC, Sunnyvale, Calif., USA.
WSU-DLCL2 suspension cells were maintained in growth medium (RPMI 1640 supplemented with 10% v/v heat inactivated fetal bovine serum and cultured at 37° C. under 5% CO2. Under assay conditions, cells were incubated in Assay Medium (RPMI 1640 supplemented with 20% v/v heat inactivated fetal bovine serum and 100 units/mL penicillin-streptomycin) at 37° C. under 5% CO2.
For the assessment of the effect of compounds on the proliferation of the WSU-DLCL2 cell line, exponentially growing cells were plated in 384-well white opaque plates at a density of 1250 cell/ml in a final volume of 50 μl of assay medium. A compound source plate was prepared by performing triplicate nine-point 3-fold serial dilutions in DMSO, beginning at 10 mM (final top concentration of compound in the assay was 20 μM and the DMSO was 0.2%). A 100 nL aliquot from the compound stock plate was added to its respective well in the cell plate. The 100% inhibition control consisted of cells treated with 200 nM final concentration of staurosporine and the 0% inhibition control consisted of DMSO treated cells. After addition of compounds, assay plates were incubated for 6 days at 37° C., 5% CO2, relative humidity >90% for 6 days. Cell viability was measured by quantization of ATP present in the cell cultures, adding 35 μl of Cell Titer Glo® reagent to the cell plates. Luminescence was read in the SpectraMax M5. The concentration inhibiting cell viability by 50% was determined using a 4-parametric fit of the normalized dose response curves.

With `CCN(c1cc(Cl)cc(C(=O)NCc2cccn3ccnc23)c1C)[C@H]1CC[C@H](N(C)C)CC1` [Cpd 3] as the molecule, how does the IC50 read?
Its IC50 is greater than 25 µM.

`CCN(c1cc(Cl)cc(C(=O)NCc2nccs2)c1C)C1CCOCC1` [Cpd 24] was tested. Which IC50 did it give?
The IC50 was greater than 50 µM.

With `CCN(c1cc(Cl)cc(C(=O)NCc2nccn2C)c1C)C1CCOCC1` [Cpd 23] as the molecule, how does the IC50 read?
Its IC50 is greater than 50 µM.

For `CCN(c1cc(Cl)cc(C(=O)NCc2ccn(C)n2)c1C)C1CCOCC1` [Cpd 28], which IC50 is on record?
The IC50 was greater than 50 µM.

Which IC50 does the source give for `CCN(c1cc(Cl)cc(C(=O)NCc2cncn2C)c1C)C1CCOCC1` [Cpd 22] here?
Its IC50 is greater than 50 µM.

Which IC50 does the source give for `CCN(c1cc(Cl)cc(C(=O)NCc2cn3ccsc3n2)c1C)C1CCOCC1` [Cpd 26] here?
The IC50 was greater than 50 µM.

With `CCN(c1cc(Cl)cc(C(=O)NCc2cc(C)on2)c1C)C1CCOCC1` [Cpd 29] as the molecule, how does the IC50 read?
The IC50 was greater than 50 µM.

`CCN(c1cc(Cl)cc(C(=O)NCCc2ncc[nH]2)c1C)[C@H]1CC[C@H](N(C)C)CC1` [Cpd 10] was tested. Which IC50 did it give?
Its IC50 is greater than 50 µM.

For `CCN(c1cc(Cl)cc(C(=O)NCc2c[nH]cn2)c1C)C1CCOCC1` [Cpd 30], which IC50 is on record?
Its IC50 is 44.1 µM.

With `CCN(c1cc(Cl)cc(C(=O)NCc2c(C)cc(C)n3ccnc23)c1C)[C@H]1CC[C@H](N(C)C)CC1` [Cpd 1] as the molecule, how does the IC50 read?
Its IC50 is greater than 25 µM.

How did the IC50 turn out when `CCN(c1cc(Cl)cc(C(=O)NCc2cn(C)cn2)c1C)C1CCOCC1` [Cpd 25] was run?
Its IC50 is greater than 50 µM.

For `CCN(c1cc(Cl)cc(C(=O)NCc2c(C)ccn3ccnc23)c1C)[C@H]1CC[C@H](N(C)C)CC1` [Cpd 2], which IC50 is on record?
The IC50 was greater than 25 µM.

Which IC50 does the source give for `CCN(c1cc(Cl)cc(C(=O)NCc2cc(C)nn2C)c1C)C1CCOCC1` [Cpd 31] here?
The IC50 was greater than 50 µM.

Which IC50 does the source give for `CCN(c1cc(Cl)cc(C(=O)NCc2cnn(C)c2C)c1C)C1CCOCC1` [Cpd 27] here?
The IC50 was greater than 50 µM.
